In paper PMC8841438 (Clinical and Translational Science, 2021):
Entries after “also recorded” stand apart in the source; their conditions may differ. Where two headings read alike, the source gives them in different places. Blank lines part the entries; values can stand above or below the compound they belong to.

Assays:
[1] = filgotinib: unchanged; cited from earlier work
[2] = type: in vivo, human; settings: study 2
[3] = test system: breast cancer resistance protein; settings: in vitro; at clinically relevant concentrations; cited from earlier work
[4] = target: T1, organic cation transporter 2 (OCT2) (Homo sapiens, UniProt O15244); test: In vitro transporter inhibition: OCT2; type: in vitro ADME; settings: data on file at Gilead Sciences, Inc.
T1 sequence (O15244 1-555): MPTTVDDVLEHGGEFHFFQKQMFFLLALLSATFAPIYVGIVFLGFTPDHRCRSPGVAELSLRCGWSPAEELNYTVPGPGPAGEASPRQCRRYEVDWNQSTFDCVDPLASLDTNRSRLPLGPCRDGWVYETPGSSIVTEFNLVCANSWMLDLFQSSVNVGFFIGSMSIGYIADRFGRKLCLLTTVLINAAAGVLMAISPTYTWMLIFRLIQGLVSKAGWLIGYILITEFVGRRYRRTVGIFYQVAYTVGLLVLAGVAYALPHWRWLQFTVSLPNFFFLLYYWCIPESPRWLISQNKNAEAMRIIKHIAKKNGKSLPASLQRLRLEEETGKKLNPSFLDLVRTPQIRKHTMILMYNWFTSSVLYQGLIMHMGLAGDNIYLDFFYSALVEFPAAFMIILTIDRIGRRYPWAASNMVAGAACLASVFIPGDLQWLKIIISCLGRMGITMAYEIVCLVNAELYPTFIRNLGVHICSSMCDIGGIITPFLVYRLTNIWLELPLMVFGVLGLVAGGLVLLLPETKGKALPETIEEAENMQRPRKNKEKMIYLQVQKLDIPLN

[5] = test system: JAK1; settings: cited from earlier work
[6] = target: MATE2K (Homo sapiens, UniProt Q86VL8); test: In vitro transporter inhibition: MATE2K; type: in vitro ADME; settings: data on file at Gilead Sciences, Inc.
Chain of MATE2K (Q86VL8 1-566 isoform Q86VL8-3): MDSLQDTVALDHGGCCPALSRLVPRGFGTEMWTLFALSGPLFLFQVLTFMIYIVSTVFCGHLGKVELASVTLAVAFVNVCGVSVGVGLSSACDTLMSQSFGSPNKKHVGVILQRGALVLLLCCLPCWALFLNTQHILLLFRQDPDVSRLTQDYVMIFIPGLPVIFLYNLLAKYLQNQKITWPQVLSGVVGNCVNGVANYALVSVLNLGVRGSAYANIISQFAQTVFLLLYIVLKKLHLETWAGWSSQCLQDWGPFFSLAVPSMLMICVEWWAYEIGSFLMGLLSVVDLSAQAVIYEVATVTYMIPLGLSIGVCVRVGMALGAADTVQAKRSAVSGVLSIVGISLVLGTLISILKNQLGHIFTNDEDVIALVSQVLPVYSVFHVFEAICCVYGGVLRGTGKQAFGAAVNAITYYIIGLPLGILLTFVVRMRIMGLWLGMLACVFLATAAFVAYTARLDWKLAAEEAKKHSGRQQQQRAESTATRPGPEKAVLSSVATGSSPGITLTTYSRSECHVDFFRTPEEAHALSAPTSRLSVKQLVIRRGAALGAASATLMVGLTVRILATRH

[7] = test system: P‐glycoprotein; settings: in vitro; cited from earlier work
[8] = test system: organic cation transporter 1; settings: in vitro; at clinically relevant concentrations; cited from earlier work
[9] = type: in vivo, human; settings: study 1
[10] = test system: organic anion transporter 3; settings: in vitro; at clinically relevant concentrations; cited from earlier work
[11] = cited from earlier work
[12] = test system: P‐gp; settings: in vitro; at clinically relevant concentrations; cited from earlier work
[13] = test system: bile salt export pump; settings: in vitro; at clinically relevant concentrations; cited from earlier work
[14] = test system: organic anion transporter 4; settings: in vitro; at clinically relevant concentrations; cited from earlier work
[15] = test system: organic anion transporter 1; settings: in vitro; at clinically relevant concentrations; cited from earlier work
[16] = Safety assessments; type: in vivo, human; settings: for subjects with AEs: all grade 1
[17] = available data; cited from earlier work
[18] = Study 3: metformin pharmacokinetics alone or with filgotinib in healthy subjects; settings: human, plasma, oral, 850 mg
[19] = test system: CES2; settings: human hepatocytes; cited from earlier work
[20] = test system: CES1; settings: human hepatocytes; cited from earlier work
[21] = filgotinib 200 mg after multiple doses of rifampin 600 mg vs alone
[22] = filgotinib + rifampin vs filgotinib alone
[23] = single filgotinib 200 mg alone, fasting, plasma, mean (%CV), N = 14
[24] = single filgotinib 200 mg alone, median (Q1, Q3), N = 14
[25] = patients with rheumatoid arthritis
[26] = filgotinib + itraconazole vs filgotinib alone
[27] = single filgotinib 100 mg alone, fasting, median (Q1, Q3), N = 13
[28] = single filgotinib 100 mg alone, fasting, plasma, mean (%CV), N = 13

reduction in AUCinf by rifampin [2, 21]: 38% | reduction in C max by rifampin [2, 21]: 19% | AUCinf %GLSM ratio (90% CI) [2, 22]: 61.9 (57.9, 66.1) % | AUClast %GLSM ratio (90% CI) [2, 22]: 62.3 (58.4, 66.4) % | C max %GLSM ratio (90% CI) [2, 22]: 81.0 (76.8, 85.4) % | effect of rifampin on T max and t 1/2 (in words) ([2]; filgotinib: T max and t 1/2, GS‐829845: Tmax): similar | AUCinf [2, 23]: 77,400 (25.3) ng*h/ml | AUClast [2, 23]: 76,700 (24.8) ng*h/ml | C max [2, 23]: 2900 (15.1) ng/ml | Tmax [2, 24]: 4.00 (3.00, 4.00) h | t1/2 [2, 24]: 15.9 (14.8, 18.9) h | inhibition of OCT2 (in words) ([4]; in vitro data): may inhibit | ratio of maximum unbound plasma concentration over in vitro IC50 against OCT2 [4, 25]: 0.5 | inhibition of MATE2K (in words) ([6]; in vitro data): may inhibit | ratio of maximum unbound plasma concentration over in vitro IC50 against MATE2K [6, 25]: 0.69 | AUCinf %GLSM ratio (90% CI) [9, 26]: 107 (104,110) % | AUClast %GLSM ratio (90% CI) [9, 26]: 106 (103,109) % | T max [9, 27]: 4.00 (4.00, 4.00) h | t1/2 [9, 27]: 17.0 (14.0,19.5) h | AUCinf [9, 28]: 31,200 (18.4) ng*h/ml | AUClast [9, 28]: 30,800 (18.0) ng*h/ml | C max [9, 28]: 1160 (24.8) ng/ml
SMILES: Nc1nc2cccc(-c3ccc(CN4CCS(=O)(=O)CC4)cc3)n2n1 [GS‐829845]
orally administered dose recovered in feces as the named species [1]: ~ 9% | orally administered dose recovered in urine as the named species [1]: ~ 54% | inhibition of breast cancer resistance protein [3]: not inhibitors | JAK1 potency relative to filgotinib [5]: ~ 1/10 | substrate of P‐glycoprotein [7]: substrates | inhibition of organic cation transporter 1 [8]: not inhibitors | effect of itraconazole on pharmacokinetic parameters (in words) ([9]; filgotinib: Tmax, t1/2, GS‐829845: C max, AUCinf, T max, t 1/2): no effect; also recorded: similar; also recorded: did not affect | inhibition of organic anion transporter 3 [10]: not inhibitors | accumulation following multiple doses [11]: approximately twofold accumulation | time to steady‐state concentrations [11]: ~4 days | inhibition of P‐gp [12]: not inhibitors | inhibition of bile salt export pump [13]: not inhibitors | inhibition of organic anion transporter 4 [14]: not inhibitors | inhibition of organic anion transporter 1 [15]: not inhibitors

AUC(0-inf) [18]: 8720 ng·h/mL | AUC(0-t) [18]: 8640 ng·h/mL
SMILES: CN(C)C(=N)N=C(N)N [Metformin, metformin]
subjects with AEs ([16]; study 3, by treatment period): 25% | AE considered related to study drug (kind of AE) ([16]; study 3, one subject, by treatment phase): nausea + vomiting | maximal increase of metformin exposure via OCT2, MATE1, and MATE2K inhibition [17]: ~ 2.6 fold

SMILES: CO[C@H]1/C=C/O[C@@]2(C)Oc3c(C)c(O)c4c(O)c(c(/C=N/N5CCN(C)CC5)c(O)c4c3C2=O)NC(=O)/C(C)=C\C=C\[C@H](C)[C@H](O)[C@@H](C)[C@@H](O)[C@@H](C)[C@H](OC(C)=O)[C@@H]1C [rifampin, reference compound]
subjects with AEs considered to be related to study drug (nausea) ([16]; study 2): 7.1% | subjects with grade 3 laboratory abnormality (occult blood in urine) ([16]; study 2): 14% | subjects with AEs ([16]; study 2, by treatment period): 14% | subjects with at least one graded laboratory abnormality ([16]; study 2, by treatment period, majority grade 1 or 2): 93% | induction of CES2 [19]: moderate induction | induction of CES1 [20]: moderate induction
